The source of these data is patent publication US20130065897A1, “COMPOUNDS, PREPARATION AND USES THEREOF” (PETER MACCALLUM CANCER INSTITUTE, priority 2009, published 2013).

Some results are limits rather than exact numbers.

Data set [1] has as its system KHYG-1 NK cell-mediated lysis of K562 cells. The experiment in a line: Inhibition of KHYG-1 NK cell-mediated lysis of K562 cells (51Cr release). In kind it is cell-based. The following applies: K562 target cells, Effector:Target 2:1, 4 hours 37° C. The procedure: Inhibition of KHYG-1 NK Cell-Mediated lysis of K562 Cells
KHYG-1 cells were washed and resuspended in RPMI+0.1% BSA at 4×10^5 cells/ml and 50 μl of KHYG-1 cells were dispensed to each well of a 96-well V-bottom, plate. Test compounds were added to KHYG-1 cells at various concentrations up to 20 μM and incubated at RT for 20 minutes. 1×10^6 K562 target cells were labelled with 75 μCi ^51Cr in 200 μl RPMI for 90 mins at 37° C., cells were washed as described above and resuspended in 5 ml RPMI+0.1% BSA. 50 μl of ^51Cr labelled K562 leukemia target cells were added to each well of the KHYG-1 plate (Effector:Target 2:1) and incubated at 37° C. for 4 hours. ^51Cr release was assayed using a Skatron Harvesting Press and radioactivity estimated on a Wallac Wizard 1470 Automatic Gamma counter (Turku, Finland). The percentage of specific cytotoxicity was calculated by the formula: […]
and expressed as the mean of triplicate assays +/−standard error of the mean.

Another data set has as its system KHYG-1 NK cells. The experiment in a line: Toxicity to KHYG-1 NK cells (trypan blue viability). In kind it is cell-based. The following applies: viable cells as percentage of total (% viability), 18 to 24 hours. The protocol:
Toxicity to KHYG-1 NK Cells
KHYG-1 cells were washed and resuspended in RPMI+0.1% BSA at 4×10^5 cells/ml and 50 μl of KHYG-1 cells were dispensed to each well of a 96-well V-bottom plate. Test compounds were added to KHYG-1 cells at a concentration of 20 μM and incubated at RT for 20 minutes. 100 μL of RPMI 0.1% BSA was added and the cells were incubated for 4 hours at 37° C. then washed ×3 in RPMI+0.1% BSA. Cells were then resuspended in 200 μl of complete medium and incubated for 18 to 24 hours at 37° C. Trypan blue was added to each well and viable (clear) cells counted as a percentage of total (clear+blue) cell number (% viability).

Another data set deals with recombinant perforin (UniProt P10820). The data set is classed as cell-based. To be noted: read-out: Jurkat IC50; recombinant perforin pre-incubated 30 min with compound; 51Cr-labelled Jurkat cells, 0.1% BSA, 37° C. 4 hours. The procedure: Inhibition of Perforin-Mediated Lysis of Jurkat Cells
Sequence of recombinant perforin (P10820 whole entry): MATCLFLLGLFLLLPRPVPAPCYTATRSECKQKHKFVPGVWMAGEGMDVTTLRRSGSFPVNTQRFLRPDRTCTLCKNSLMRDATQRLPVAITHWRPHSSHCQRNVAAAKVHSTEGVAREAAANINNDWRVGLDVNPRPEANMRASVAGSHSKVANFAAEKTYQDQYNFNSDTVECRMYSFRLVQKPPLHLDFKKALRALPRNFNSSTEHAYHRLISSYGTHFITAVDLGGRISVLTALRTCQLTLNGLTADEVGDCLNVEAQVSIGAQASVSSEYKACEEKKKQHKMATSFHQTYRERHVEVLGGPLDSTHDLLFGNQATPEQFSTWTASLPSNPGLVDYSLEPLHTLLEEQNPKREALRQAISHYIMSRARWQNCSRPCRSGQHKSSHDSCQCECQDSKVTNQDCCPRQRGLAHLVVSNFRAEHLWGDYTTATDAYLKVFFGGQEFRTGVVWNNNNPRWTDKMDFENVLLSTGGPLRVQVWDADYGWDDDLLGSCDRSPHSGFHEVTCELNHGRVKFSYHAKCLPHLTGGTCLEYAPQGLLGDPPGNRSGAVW
The ability of the compounds to inhibit the lysis of nucleated (Jurkat T lymphoma) cells in the presence of 0.1% BSA, as measured by release of ^51Cr was measured. Jurkat target cells were labelled by incubation in medium with 100 μCi ^51Cr for one hour. The cells were then washed three times to remove unincorporated isotope and re-suspended at 1×10^5 cells per mL in RPMI buffer supplemented with 0.1% BSA. […] The supernatant was collected and assessed for its radioactive content on a gamma counter (Wallac Wizard 1470 automatic gamma counter). Each data point was performed in triplicate and an IC50 was calculated from the range of concentrations described to above.

The compound `O=C1NC(=S)N/C1=C/c1ccc(-c2ccc3c(c2)COC3=O)o1` [Cmpd 1, (E,Z)-5-((5-(1-Oxo-1,3-dihydroisobenzofuran-5-yl)furan-2-yl)methylene)-2-thioxoimidazolidin-4-one] showed a melting point greater than 300 °C. In data set [1], this compound displayed an inhibition at 20 µM of 95%. Also, the “percent viable KHYG-1 cells (trypan blue) at 20 μM” value (shortened to “percent viable KHYG-1 cells”) in the data set on KHYG-1 NK cells worked out at 66%.
For `O=C1NC(=O)/C(=C\c2ccc(-c3ccc4c(c3)COC4=O)s2)N1` [Cmpd 3, (E,Z)-5-((5-(1-Oxo-1,3-dihydroisobenzofuran-5-yl)thiophen-2-yl)methylene)imidazolidine-2,4-dione], in that order: greater than 300 °C, 70% and 82%.
Consider `[H]/N=C1/NC(=O)/C(=C\c2ccc(-c3ccc4c(c3)COC4=O)s2)N1C` [Cmpd 4, (E,Z)-2-Imino-1-methyl-5-((5-(1-oxo-1,3-dihydroisobenzofuran-5-yl)thiophen-2-yl)methylene)imidazolidin-4-one], for which the melting point was greater than 300 °C. Besides, the inhibition at 20 µM in data set [1] turned out to be 50%. In the data set on KHYG-1 NK cells, the “percent viable KHYG-1 cells” value is listed as 100%.
Compound `O=C1NC(=S)N/C1=C\c1cccc(-c2ccc3c(c2)COC3=O)c1` [Cmpd 5, (E,Z)-5-(3-(1-Oxo-1,3-dihydroisobenzofuran-5-yl)benzylidene)-2-thioxoimidazolidin-4-one] displayed a melting point of 285 to 288 °C. In data set [1], this compound had an inhibition at 20 µM of 64%. Besides, the “percent viable KHYG-1 cells” value in the data set on KHYG-1 NK cells came out at 97%.
`O=C1NC(=S)N/C1=C\c1ccc(-c2ccc3c(c2)COC3=O)cc1` [Cmpd 6, (E,Z)-5-(4-(1-Oxo-1,3-dihydroisobenzofuran-5-yl)benzylidene)-2-thioxoimidazolidin-4-one]: the melting point is greater than 300 °C. The inhibition at 20 µM in data set [1] was determined as 50%. Besides, the “percent viable KHYG-1 cells” value in the data set on KHYG-1 NK cells was 95%.
For the compound `O=C1NC(=S)N/C1=C\c1ccc(-c2ccc3c(c2)COC3=O)cn1` [Cmpd 8, (E,Z)-5-((5-(1-oxo-1,3-dihydroisobenzofuran-5-yl)pyridin-2-yl)methylene)-2-thioxoimidazolidin-4-one], the melting point was greater than 300 °C. The inhibition at 20 µM in data set [1] came to 57%. Moreover, the “percent viable KHYG-1 cells” value with KHYG-1 NK cells was determined as 96%.
For the compound `O=C1NC(=S)N/C1=C\c1csc2ccc(-c3ccc4c(c3)COC4=O)cc12` [Cmpd 9], the melting point was greater than 300 °C. For the same compound, in data set [1], 20 µM produced 80% inhibition. The “percent viable KHYG-1 cells” value in the data set on KHYG-1 NK cells was found to be 0%.
In the case of `O=C1NC(=S)N/C1=C/c1ccc(-c2cccnc2)s1` [Cmpd 26, (E,Z)-5-((5-(Pyridin-3-yl)thiophen-2-yl)methylene)-2-thioxoimidazolidin-4-one], the melting point is greater than 295 °C. The 50% inhibitory concentration (IC50) on recombinant perforin was 12900 nM.
Turning to `O=C1NC(=S)N/C1=C\c1cccc(-c2ccc3c(c2)CNC3=O)c1` [Cmpd 49, (E,Z)-5-(3-((5-Oxo-2-thioxoimidazolidin-4-ylidene)methyl)phenyl)isoindolin-1-one], the melting point was greater than 300 °C. For the same compound, the inhibition at 20 µM in data set [1] was 8%. Further, at recombinant perforin, the IC50 amounted to 3440 nM.
`O=C1NC(=S)N/C1=C/c1cc(-c2ccc3c(c2)CNC3=O)cs1` [Cmpd 50, (E,Z)-5-(5-((5-Oxo-2-thioxoimidazolidin-4-ylidene)methyl)thiophen-3-yl)isoindolin-1-one] returned a melting point greater than 300 °C. The same compound gave an inhibition at 20 µM in data set [1] of 42%. Besides, the IC50 at recombinant perforin stood at 3000 nM.
For `O=C1NC(=S)N/C1=C/c1ccc(-c2ccc3c(c2)COC3=O)[nH]1` [Cmpd 53, (E,Z)-5-((5-(1-Oxo-1,3-dihydroisobenzofuran-5-yl)-1H-pyrrol-2-yl)methylene)-2-thioxoimidazolidin-4-one], in that order: greater than 300 °C, 30% and 2450 nM.
Consider `O=C1NC(=S)N/C1=C\c1nc(-c2ccc3c(c2)COC3=O)cs1` [Cmpd 56, (E,Z)-5-((4-(1-Oxo-1,3-dihydroisobenzofuran-5-yl)thiazol-2-yl)methylene)-2-thioxoimidazolidin-4-one], for which the melting point is greater than 295 °C. Further, the IC50 at recombinant perforin came to 1410 nM.
As for `O=C1NC(=S)N/C1=C\c1csc(-c2ccc3c(c2)COC3=O)n1` [Cmpd 57, (E,Z)-5-((2-(1-Oxo-1,3-dihydroisobenzofuran-5-yl)thiazol-4-yl)methylene)-2-thioxoimidazolidin-4-one], the melting point is greater than 295 °C. In addition, the IC50 on recombinant perforin turned out to be 340 nM.
With `O=C1NC(=S)N/C1=C\c1cc(-c2ccc3c(c2)COC3=O)ns1` [Cmpd 60, (E,Z)-5-((3-(1-Oxo-1,3-dihydroisobenzofuran-5-yl)isothiazol-5-yl)methylene)-2-thioxoimidazolidin-4-one], the melting point is greater than 300 °C. This compound returned an inhibition at 20 µM in data set [1] of 45%. For the same compound, at recombinant perforin, the IC50 worked out at 1440 nM.
Compound `O=C1NC(=S)N/C1=C/c1ccc(-c2ccc3c(c2)CN(CCCO)C3=O)s1` [Cmpd 71, (E,Z)-2-(3-Hydroxypropyl)-5-(5-((5-oxo-2-thioxoimidazolidin-4-ylidene)methyl)thiophen-2-yl)isoindolin-1-one] yielded an inhibition at 20 µM in data set [1] of 62%. The IC50 on recombinant perforin worked out at 530 nM. Besides, in the data set with KHYG-1 NK cells, the “percent viable KHYG-1 cells” value is 88%.
The like results for `O=C1NC(=S)N/C1=C/c1ccc(-c2ccc3c(c2)C(=O)NC3)s1` [Cmpd 72, (E,Z)-6-(5-((5-Oxo-2-thioxoimidazolidin-4-ylidene)methyl)thiophen-2-yl)isoindolin-1-one] were, in that order, 58%, 1380 nM and 81%.
The like results for `CN1Cc2ccc(-c3ccc(/C=C4/NC(=S)NC4=O)s3)cc2C1=O` [Cmpd 73, (E,Z)-2-Methyl-6-(5-((5-oxo-2-thioxoimidazolidin-4-ylidene)methyl)thiophen-2-yl)isoindolin-1-one] were, in that order, 60%, 1890 nM and 85%.
Regarding `O=C1NC(=S)N/C1=C/c1ccc(-c2ccc3c(c2)CN(CCCN2CCCCC2)C3=O)s1` [Cmpd 75, (E,Z)-5-(5-((5-Oxo-2-thioxoimidazolidin-4-ylidene)methyl)thiophen-2-yl)-2-(3-(piperidin-1-yl)propyl)isoindolin-1-one], in data set [1], the inhibition at 20 µM is 61%. For the same compound, the IC50 at recombinant perforin stood at 11800 nM. Moreover, the “percent viable KHYG-1 cells” value with KHYG-1 NK cells turned out to be 85%.
The compound `CN1CCN(CCCN2Cc3cc(-c4ccc(/C=C5/NC(=S)NC5=O)s4)ccc3C2=O)CC1` [Cmpd 76, (E,Z)-2-(3-(4-Methylpiperazin-1-yl)propyl)-5-(5-((5-oxo-2-thioxoimidazolidin-4-ylidene)methyl)thiophen-2-yl)isoindolin-1-one] gave a melting point of 197 to 201 °C. The compound further displayed an inhibition at 20 µM in data set [1] of 58%. For the same compound, the IC50 on recombinant perforin was greater than 20000 nM.
In data set [1], `O=C1NC(=S)N/C1=C/c1ccc(-c2ccc3c(c2)CN(CCCN2CCCC2)C3=O)s1` [Cmpd 77, (E,Z)-5-(5((5-Oxo-2-thioxoimidazolidin-4-ylidene)methyl)thiophen-2-yl)-2-(3-(pyrrolidin-1-yl)propyl)isoindolin-1-one] returned an inhibition at 20 µM of 81%. In addition, on recombinant perforin, the IC50 is greater than 20000 nM. Further, the “percent viable KHYG-1 cells” value with KHYG-1 NK cells was 80%.
As to `O=C1NC(=S)N/C1=C\c1ccc(-c2ccc3c(c2)C(=O)NCC3)s1` [Cmpd 81, (E,Z)-7-(5-((5-Oxo-2-thioxoimidazolidin-4-ylidene)methyl)thiophen-2-yl)-3,4-dihydroisoquinolin-1(2H)-one], the inhibition at 20 µM in data set [1] worked out at 62%. At recombinant perforin, the IC50 was determined as 670 nM. Also, in the data set with KHYG-1 NK cells, the “percent viable KHYG-1 cells” value was determined as 88%.
Take `O=C1NC(=S)N/C1=C\c1ccc(-c2ccc3c(c2)CCNC3=O)s1` [Cmpd 82, (E,Z)-6-(5-((5-Oxo-2-thioxoimidazolidin-4-ylidene)methyl)thiophen-2-yl)-3,4-dihydroisoquinolin-1(2H)-one]: the inhibition at 20 µM in data set [1] is 92%. For the same compound, the IC50 on recombinant perforin was found to be 1140 nM. In addition, the “percent viable KHYG-1 cells” value with KHYG-1 NK cells is given as 80%.
